Laboratory results as given in US6420538B1, “Aromatic amides, preparation method and application as medicines” (Aventis Pharma S.A., priority 1998, dated 2002).

Columns and labels:
Assay in all cases: Method of dilutions in liquid medium (MIC)
Assay type in all cases: cell-based
Settings in all cases: 24 hours at 37° C.
[1] = tested on: Staph. epidermidis 0126042
Description: (§1) A—Method of dilutions in liquid medium A series of tubes is prepared in which the same quantity of sterile nutritive medium is distributed. Increasing quantities of the product to be studied are distributed into each tube, then each tube is sown with a bacterial strain. After incubation for twenty-four hours in an oven at 37° C., the growth inhibition is evaluated by transillumination, which allows the minimal inhibitory concentrations (M.I.C.) to be determined, expressed in micrograms/cm^3. Activity in vitro MIC in μg/ml

[2] = tested on: Staph. coag. negative 012HT5
Description: as §1

[3] = tested on: Staph. aureus 011HT18
Description: as §1

[4] = tested on: Entero faecium 02D3IP2
Description: as §1

[5] = tested on: Strepto. pyogene 02A1UC1
Description: as §1

[6] = tested on: Entero faecalis 02D2UC5
Description: as §1

[7] = tested on: Strepto. pneumoniae 030BI2
Description: as §1

Compound	Activity in vitro MIC [1]	Activity in vitro MIC [2]	Activity in vitro MIC [3]	Activity in vitro MIC [4]	Activity in vitro MIC [5]	Activity in vitro MIC [6]	Activity in vitro MIC [7]
C#CCONC(=O)O[C@H]1[C@@H](O)[C@H](Oc2ccc3c(O)c(C(N)=O)c(=O)oc3c2C)OC(C)(C)[C@@H]1OC [Ex. 1, (2-propynyloxy)-carbamic 3′ester of 7-[[6-deoxy-5-C-methyl-4-O-methyl-alpha-L-lyxo-hexopyranosyl]oxy]-4-hydroxy-8-methyl-2-oxo-2H-1-benzopyran-3-carboxamide acid]	0.04 µg/mL	0.3 µg/mL	0.04 µg/mL	0.08 µg/mL	0.6 µg/mL	0.3 µg/mL	0.04 µg/mL
C#CCONC(=O)O[C@H]1[C@@H](O)[C@H](Oc2ccc3c(O)c(C(=O)NCCN4CCOCC4)c(=O)oc3c2C)OC(C)(C)[C@@H]1OC [Ex. 2, 7-[(6-deoxy-5-C-methyl-4-O-methyl-alpha-L-lyxo-hexopyranosyl)oxyl]-4-hydroxy-8-methyl-N-[2-(4-morpholinyl)ethyl]-2-oxo-2H-1-benzopyrane-3-carboxamide (2-propynyloxy)-carbamic 3′-ester acid]	0.04 µg/mL	0.04 µg/mL	0.04 µg/mL	0.6 µg/mL	0.3 µg/mL	1.2 µg/mL	0.08 µg/mL
C#CCONC(=O)O[C@H]1[C@@H](O)[C@H](Oc2ccc3c(O)c(C(C)=NOC)c(=O)oc3c2C)OC(C)(C)[C@@H]1OC [Ex. 3, 7-[[6-deoxy-5-C-methyl-4-O-methyl-alpha-L-lyxo-hexopyranosyl]oxy]-4-hydroxy-3-[1-(methoxyimino)ethyl]-8-methyl-2H-1-benzopyran-2-one(2-propynyloxy)-carbamic-3′-ester acid]	0.04 µg/mL	0.15 µg/mL	0.04 µg/mL	1.2 µg/mL	0.6 µg/mL	1.2 µg/mL	0.08 µg/mL
C#CCONC(=O)O[C@H]1[C@@H](O)[C@H](Oc2ccc3c(O)c(C(C)=NOCC)c(=O)oc3c2C)OC(C)(C)[C@@H]1OC [Ex. 4, 7-[(6-deoxy-5-C-methyl-4-O-methyl-alpha-L-lyxo-hexopyranosyl)oxy]-3-[1-(ethoxyimino)ethyl]-4-hydroxy-8-methyl-2H-1-benzopyran-2-one(2-propynyloxy)-carbamic 3′-ester acid]	0.15 µg/mL	0.15 µg/mL	0.04 µg/mL	1.2 µg/mL	0.6 µg/mL	1.2 µg/mL	0.15 µg/mL
